Laboratory results reported in patent US6809091B1, “Substances capable of inducing apoptosis” (Takara Bio Inc., priority 1998, dated 2004).
Read-outs that look alike come from different tables or passages of the source.

What was measured:
DSEK cells = assay: cell growth of DSEK cells (rheumatism model in vitro), Premix WST-1; assay type: cell-based, human; details: for IC50: Homo sapiens; for inhibition of growth of rheumatism cells / antirheumatic activity: compared with the case where PBS was added
Method: (2) DSEK cells (owned by Department of Second Internal Medicine, Total Medical Center, Saitama Medical College, as a rhematism model in vitro) which were fibroblast cell strains established from synovial membrane from a patient suffering from human chronic rheumatism were incubated in an Iscov-MEM medium (IMDM; manufactured by Gibco BRL) containing 10% of FBS (manufactured by BioWhittaker) at 37° C. in the presence of 5% CO2 until the cells saturated in a incubator, a trypsin-EDTA solution (manufactured by BioWhittaker) was suspended in the above medium to an extent of 3×10^4 cells/ml and each 200 μl of the suspension was placed in each well of a 96-well microtiter plate (manufactured by Falcon). When the cells were almost in a state of 80% saturation after 5-7 days from incubation, the medium was exchanged and 200 μl of the above medium containing 50, 75, 100 or 150 μM of 4-hydroxy-2-cyclopenten-1-one or 4,5-dihydroxy-2-pentenal were added thereto.
A time course of 96 hours was adopted and, every 24 hours, 10 μl of Premix WST-1 (MK 400; manufactured by Takara Shuzo) were added followed by reacting at 37° C. for 3.5 hours and the value (A450-650) obtained by subtracting the absorbance at 650 nm (A650) from that at 450 nm (A450) was defined as a degree of cell growth.
(3) DSEK cells were prepared under the conditions as mentioned in Example 15-(2) and 20 μl of medium containing 25, 50, 75, 100, 200 or 400 μM of 4,5-dihydroxy-2-pentenal, 4-hydroxy-2-cyclopenten-1-one, 4-(9-guaninyl)-2-cyclopenten1-one or 2-(3,4-dihydroxy-1-butenyl)-4-(2-formylvinyl)-1,3-dioxolane were added thereto.
A time course of 72 hours was adopted and, every 24 hours, degree of cell growth was measured with a lapse of time. IC50 of each of the compounds was measured as well.

[1] = test system: human promyelocytic leukemia HL-60; assay: MTT method: cell growth suppressing / apoptosis-inducing activity; assay type: cell-based; details: for cancer cell growth suppressing activity and apoptic body formation: HL-60, MTT method of Example 4-(2), sample in 50% ethanol, 16 hours; for apoptosis-inducing activity / cancer cell growth suppressing activity: HL-60, MTT method of Example 1, 48 hours
Method: Heated and non-heated substances of each of them were sterilized by a membrane filter of 0.22 μm to prepare samples for the apoptosis-inducing activity. Those samples were diluted with aseptic distilled water to an extent of 2-, 4-, 8-, 16- and 32-fold, their activity for suppressing the cell growth to the human promyelocytic leukemia HL-60 was measured as follows and their intensity or the apoptosis-inducing activity was compared.
Thus, 10 μl of each of the diluted solutions or 10 μl of aseptic distilled water were placed in a well of a 96-well microtiter plate. Then 90 μl of an RPMI 1640 medium (manufactured by Nissui) containing 10% of fetal bovine serum (manufactured by Gibco) which contained 5000 HL-60 cells (ATCC CCL240) were added thereto and an incubation was carried out at 37° C. for 48 hours in the presence of 5% carbon dioxide gas. After observing the shape of the cells under an optical microscope, 10 μl of a phosphate-buffered aqueous saline solution containing 5 mg/ml of 3-(4,5-dimethylthiazol-2-yl)-2,5-diphenyltetrazolium bromide (MTT; manufactured by Sigma), an incubation was continued for four hours more and state of growth of cells and formation of formazan produced in the cells were observed under a microscope. Further, 100 μl of 2-propanol containing 0.04N HCl were added thereto followed by well stirring and the absorbance at 590 nm was measured and used as a degree of growth of cells (an MTT method).
The solvent of the fraction was appropriately evaporated to substitute with a 50% aqueous solution of ethanol and the activity for suppressing the growth of cancer cells was measured by an MTT method mentioned in Example 1 except that the sample was diluted to a two-fold series using a 50% aqueous solution of ethanol and 2 μl of each of the diluted solutions or 2 μl of a 50% aqueous solution of ethanol were placed in a well of a flat-bottom 96-well microplate. Time for incubation was 16 hours.

HL-60 cells [2] = assay: observation of apoptosis under an optical microscope; assay type: cell-based, human; details: HL-60, 24 hours
Method: (1) HL-60 cells (ATCC CCL-240) incubated at 37° C. in an RPMI 1640 medium (manufactured by BioWhittaker) containing 10% of fetal bovine serum (manufactured by JRH) treated at 56° C. for 30 minutes were suspended in an RPMI 1640 medium to make the concentration 2.5×10^5 cells/5 ml.
To 5 ml of this suspension were added 10 μl of 12.5 mM, 25 mM, 50 mM or 100 mM of a 70% ethanolic solution of 4,5-dihydroxy-2-pentenal prepared in Example 6-(1), 0.05 mM, 0.5 mM, 5 mM or 50 mM of a 70% ethanolic solution of 4-hydroxy-2-cyclopenten-1-[…] prepared in Example 6-(1), 5 mM, 10 mM or 20 mM of a 70% ethanolic solution of 4-(9-adeninyl)-2-cyclopenten-1-one prepared in Example 4-(4), 2.5 mM, 5 mM, 15 mM or 25 mM of a 70% ethanolic solution of 4-(9-guaninyl)-2-cyclopenten-1-one prepared in Example 4-(5), 75 mM, 150 mM or 300 mM of a 70% ethanolic solution of 1,5-epoxy-1-hydroxy-3-penten-2-one prepared in Example 5-(2) or 5 mM, 25 mM or 50 mM of a 70% ethanolic solution of 2-(trans-3,4-dihydroxy-1-butenyl)-4-(trans-2-formylvinyl)-1,3-dioxolane prepared in Example 6-(2) followed by incubating at 37° C. in the presence of 5% carbon dioxide gas for 24 hours.
Incidentally, such phenomena were not noted in the incubated cells to which […] of 70% ethanolic solution were added used as a control.

HL-60 cells [3] = assay: Trypan Blue staining, survival rate; assay type: cell-based; details: Homo sapiens, HL-60, 24 hours, concentration where survival rate becomes 50%, read-out: Survival Rate50
Method: (3) The cells which were incubated for 24 hours by the same manner as in Example 9-(2) were stained with 0.4% Trypan Blue and observed under an optical microscope, numbers of viable cells which were not stained and of dead cells which were stained in blue were measured, concentration (survival rate50) of each of the samples where survival rate becomes 50% was determined and the result is given in Table 1.

[4] = 24 hours, Example 15-(3), read-out: IC50
[5] = 72 hours, Example 15-(3), read-out: IC50
[6] = 48 hours, Example 15-(2), read-out: IC50, 50% cell growth inhibiting concentration
[7] = 96 hours, Example 15-(2), read-out: IC50, 50% cell growth inhibiting concentration

In the case of `O=C/C=C/C1COC(/C=C/C(O)CO)O1` (stereo not drawn) [2-(trans-3,4-dihydroxy-1-butenyl)-4-(trans-2-formylvinyl)-1,3-dioxolane], the IC50 (DSEK cells; [4]) is reported as 267 µM, the IC50 (DSEK cells; [5]) is reported as 68 µM and the “inhibition of growth of rheumatism cells / antirheumatic activity” value (DSEK cells) is reported as “significant inhibition”. For the same compound, the “cancer cell growth suppressing activity and apoptic body formation” value [1] was “noted”, the “final concentration at which aggregation of nuclei, reduction in size of the cells and formation of apoptic body were confirmed” value (HL-60 cells [2]) was ≥ 80 µM and the IC50 (HL-60 cells [3]) was 74.4 µM.

In the case of `O=C1C=CC(O)C1` (stereo not shown) [4-hydroxy-2-cyclopenten-1-one], the “Degree of Cell Growth” value (DSEK cells; 50 μM, 24 hours) is reported as 0.57 A450-650, the “Degree of Cell Growth” value (DSEK cells; 50 μM, 48 hours) is reported as 0.71 A450-650 and the “Degree of Cell Growth” value (DSEK cells; 50 μM, 72 hours) is reported as 0.73 A450-650. The “Degree of Cell Growth” value (DSEK cells; 50 μM, 96 hours) was 0.54 A450-650, the “Degree of Cell Growth” value (DSEK cells; 75 μM, 24 hours) was 0.51 A450-650 and the “Degree of Cell Growth” value (DSEK cells; 75 μM, 48 hours) was 0.68 A450-650. The “Degree of Cell Growth” value (DSEK cells; 75 μM, 72 hours) was 0.68 A450-650, the “Degree of Cell Growth” value (DSEK cells; 75 μM, 96 hours) was 0.55 A450-650 and the “Degree of Cell Growth” value (DSEK cells; 100 μM, 24 hours) was 0.50 A450-650. For the same compound, the “Degree of Cell Growth” value (DSEK cells; 100 μM, 48 hours) was 0.64 A450-650, the “Degree of Cell Growth” value (DSEK cells; 100 μM, 72 hours) was 0.67 A450-650 and the “Degree of Cell Growth” value (DSEK cells; 100 μM, 96 hours) was 0.51 A450-650. For the same compound, the “Degree of Cell Growth” value (DSEK cells; 150 μM, 24 hours) was 0.46 A450-650, the “Degree of Cell Growth” value (DSEK cells; 150 μM, 48 hours) was 0.55 A450-650 and the “Degree of Cell Growth” value (DSEK cells; 150 μM, 72 hours) was 0.63 A450-650. The “Degree of Cell Growth” value (DSEK cells; 150 μM, 96 hours) was 0.50 A450-650, the IC50 (DSEK cells; [4]) was 207 µM and the IC50 (DSEK cells; [6]) was 60 µM. For the same compound, the IC50 (DSEK cells; [5]) was 60 µM, the IC50 (DSEK cells; [7]) was 35 µM and the “inhibition of growth of rheumatism cells / antirheumatic activity” value (DSEK cells) was “significant inhibition”. For the same compound, the “cancer cell growth suppressing activity and apoptic body formation” value [1] was “strong activity” and the IC50 (HL-60 cells [3]) was 25.5 µM.

In the case of `Nc1nc2c(ncn2C2C=CC(=O)C2)c(=O)[nH]1` (stereo not shown) [4-(9-guaninyl)-2-cyclopenten-1-one], the IC50 (DSEK cells; [4]) is reported as 132 µM, the IC50 (DSEK cells; [5]) is reported as 67 µM and the “inhibition of growth of rheumatism cells / antirheumatic activity” value (DSEK cells) is reported as “significant inhibition”. The “concentration of dried product showing deformation and apoptic body formation in the cells” value ([1]; HL-60, MTT assay) was “about 13 μg/ml”, the “final concentration at which aggregation of nuclei, reduction in size of the cells and formation of apoptic body were confirmed” value (HL-60 cells [2]) was ≥ 39 µM and the IC50 (HL-60 cells [3]) was 67.9 µM.

For `O=CC=CC(O)CO` (single isomer, unassigned) [4,5-dihydroxy-2-pentenal, trans-4,5-dihydroxy-2-pentenal], the “Degree of Cell Growth” value (DSEK cells; 50 μM, 24 hours) was 1.12 A450-650, the “Degree of Cell Growth” value (DSEK cells; 50 μM, 48 hours) was 0.83 A450-650 and the “Degree of Cell Growth” value (DSEK cells; 50 μM, 72 hours) was 0.96 A450-650. For the same compound, the “Degree of Cell Growth” value (DSEK cells; 50 μM, 96 hours) was 0.98 A450-650, the “Degree of Cell Growth” value (DSEK cells; 75 μM, 24 hours) was 1.11 A450-650 and the “Degree of Cell Growth” value (DSEK cells; 75 μM, 48 hours) was 0.77 A450-650. The “Degree of Cell Growth” value (DSEK cells; 75 μM, 72 hours) was 0.67 A450-650, the “Degree of Cell Growth” value (DSEK cells; 75 μM, 96 hours) was 0.59 A450-650 and the “Degree of Cell Growth” value (DSEK cells; 100 μM, 24 hours) was 1.02 A450-650. For the same compound, the “Degree of Cell Growth” value (DSEK cells; 100 μM, 48 hours) was 0.63 A450-650, the “Degree of Cell Growth” value (DSEK cells; 100 μM, 72 hours) was 0.54 A450-650 and the “Degree of Cell Growth” value (DSEK cells; 100 μM, 96 hours) was 0.59 A450-650. The “Degree of Cell Growth” value (DSEK cells; 150 μM, 24 hours) was 0.96 A450-650, the “Degree of Cell Growth” value (DSEK cells; 150 μM, 48 hours) was 0.61 A450-650 and the “Degree of Cell Growth” value (DSEK cells; 150 μM, 72 hours) was 0.41 A450-650. The “Degree of Cell Growth” value (DSEK cells; 150 μM, 96 hours) was 0.55 A450-650, the IC50 (DSEK cells; [4]) was 232 µM and the IC50 (DSEK cells; [6]) was 165 µM. The IC50 (DSEK cells; [5]) was 119 µM, the IC50 (DSEK cells; [7]) was 75 µM and the “inhibition of growth of rheumatism cells / antirheumatic activity” value (DSEK cells) was “significant inhibition”. For the same compound, the “apoptosis-inducing activity / cancer cell growth suppressing activity” value [1] was “strong”, the “apoptosis-inducing activity / cancer cell growth suppressing activity” value ([1]; listed as fraction 4) was “strong activity” and the “cancer cell growth suppressing activity and apoptic body formation” value [1] was “strong activity”. The “final concentration at which aggregation of nuclei, reduction in size of the cells and formation of apoptic body were confirmed” value (HL-60 cells [2]) was ≥ 1 µM and the IC50 (HL-60 cells [3]) was 124 µM.
